# Laboratory results published in patent publication US20030143548A1, “Predicting patient responsiveness to serotonergic therapy” (priority 2002, published 2003).
# Assays:
# [1] = tested on: patients with diarrhea-predominant IBS; details: cited from earlier work
# [2] = by gender; cited from earlier work
# [3] = tested on: patients with diarrhea-predominant IBS; assay: Scintigraphic measurement of colonic transit (colonic geometric center at 24 hours) at baseline and after 6 weeks of alosetron; type: in vivo, human; details: for change in colonic geometric center (ΔGC) at 24 hr: 6 weeks vs baseline, negative = slower transit
# Text: Colonic transit can be monitored by known methods (Camilleri M. and Zinsmeister A. R., Gastroenterology 103:36-42 (1992); and Camilleri M. et al., Dig. Dis. Sci. 36:609-615 (1991)). In general, labeled (e.g., ^111In) pellets can be delivered to the colon by means of a methacrylate-coated, delayed-release capsule. Simultaneously, labeled (e.g., ^99mTc) pellets can be ingested in a scrambled egg, toast, and milk meal to facilitate measurement of gastric and small bowel transit. A large field gamma camera (e.g., GE 500, General Electric, Milwaukee, Wis.) with a medium energy parallel hole collimator can be used to obtain images. Typically, images are obtained with subjects in the erect position. A variable region of interest (ROI) program can be used to measure colonic transit, with abdominal images obtained at periodic intervals (e.g.,4, 6, 8, 24, 32, and 48 hours pre- or post-treatment. The amount of label can be determined from the abdominal images in four colonic regions: the ascending, transverse, descending, and combined sigmoid and rectum regions. These counts may be corrected for isotope decay and tissue attenuation, as described in Camilleri et al. (1991) and Camilleri and Zinsmeister (1992), referenced above. The colonic geometric center is the weighted average of counts in the four different colonic regions [ascending (AC), transverse (TC), descending (DC), rectosigmoid (RS) and stool]:
# (% AC×1+% TC×2+% DC×3+% RS×4+% stool×5)/100=geometric center
# A high geometric center implies faster colonic transit, while a reduction of geometric center with treatment implies a retardation of colonic transit.
# Thirty patients with diarrhea-predominant IBS associated were studied. Gastrointestinal and colonic transit were performed during a baseline period and during the last week of a 6-week therapeutic trial with alosetron 1 mg twice daily (b.i.d.). Demographic data of the original 30 participants are as follows: mean age 43.2±3y (females 46±4y, males 40±4y); mean duration of IBS 11.2±2.0y (females 9.2±2.3y and males 13.1±3.2y). Twenty-three of the 30 patients agreed to participate in an evaluation of the influence of the genotype of the promoter region of the 5-HTTP gene. The demographics, gender, and duration of illness in the three groups of patients according to 5-HTTP genotype are shown in the table below.
# An established scintigraphic method was used as referenced above. Briefly, ^111In pellets were delivered to the colon by means of a methacrylate-coated, delayed-release capsule. Simultaneously, ^99mTc pellets were ingested in a scrambled egg, toast, and milk meal (218 kcal) to facilitate measurement of gastric and small bowel transit. Subjects ingested standardized meals for lunch and dinner. A variable region of interest (ROI) program was used to measure colonic transit. Abdominal images at 4, 6, 8, 24, 32, and 48 hours were obtained using a large field of view gamma camera (GE 500, General Electric, Milwaukee, Wis.) with a medium energy parallel hole collimator. All images were obtained with the subjects in the erect position. Radioscintigraphic markers were placed for reference on the anterior ends of the iliac crests. Anterior and posterior images were obtained with the camera positioned over the abdomen. This facilitated subsequent correction of radioisotopic counts for tissue attenuation.
# The counts in four colonic regions were determined: the ascending, transverse, descending, and combined sigmoid and rectum regions. These counts were corrected for isotope decay and tissue attenuation, as referenced above. The primary endpoint of investigation was the colonic geometric center at 24 hours. The colonic geometric center is the weighted average of counts in the four different colonic regions [ascending (AC), transverse (TC), descending (DC), rectosigmoid (RS) and stool]:
# Thus, a high geometric center implies faster colonic transit, while a reduction of geometric center with treatment implies a retardation of colonic transit. […]
# [4] = females, alosetron 1 mg b.i.d., 6 weeks
# [5] = males, alosetron 1 mg b.i.d., 6 weeks
compound,measurement,setting,value
Cc1[nH]cnc1CN1CCc2c(c3ccccc3n2C)C1=O [alosetron],adequate relief of IBS pain and discomfort and normalization of bowel function,"[1]; clinical trials, women with diarrhea-predominant IBS",beneficial effect
same,effect on colonic transit in patients with diarrhea-predominant IBS,[1]; greater effect in females than males,significantly prolonged
same,"systemic exposure, females compared to males",[2],slightly greater systemic exposure
same,number of females in whom there was no effect on colonic transit,[3]; [4],2
same,number of patients with retardation of colonic transit greater than the clinically significant threshold of 1.14 colonic regions,[3]; [4],Nine
same,change in colonic geometric center (ΔGC) at 24 hr,"[3]; females, alosetron 1 mg b.i.d., p=0.005 vs males",−1.45±0.25 geometric center units
same,"colonic transit response by 5-HTTP promoter genotype (change of 1.14 units in ΔGC24h, FIG. 2)",[3]; genotype groups after treatment with alosetron,a greater response was observed in those with the long polymorphism
same,proportion of high responders (slowing of colonic transit by more than 1.14 regions),[3]; heterozygous 5-HTTP promoter genotype group,2 of 11
same,proportion of high responders (slowing of colonic transit by more than 1.14 regions),"[3]; long variant homozygous 5-HTTP promoter genotype group, Fisher's exact test p=0.024 vs heterozygous",6 of 8
same,colonic transit response by 5-HTTP promoter genotype,"[3]; long/long homozygous vs long/short heterozygous patients, p=0.039",significantly higher response in long variant/long variant homozygous
same,males with retardation of colonic transit at 24 hours equal to or greater than the mean change in females (1.45 geometric center units),[3]; [5],2 of 15
same,number of patients with retardation of colonic transit greater than the clinically significant threshold of 1.14 colonic regions,[3]; [5],3
same,change in colonic geometric center (ΔGC) at 24 hr,"[3]; males, alosetron 1 mg b.i.d.",−0.32±0.27 geometric center units
same,colonic geometric centers at 24 hours following treatment compared to baseline,"[3]; patients with IBS, alosetron 1 mg b.i.d., last week of 6-week trial, lower = slower colonic transit",significantly lower
